Measured values as given in article PMC9476183 (ACS Omega, 2022).
Values joined by “and” are separate entries in the source; they are usually repeats but may differ in a detail not shown here. Equal values may be shown once.

Tests used:
recombinant human CYP1A1 = target: T1, recombinant human CYP1A1 (Homo sapiens, UniProt P04798); test: EROD assay, CYP1A1 inhibition; format: biochemical
T1 sequence (P04798 1-512): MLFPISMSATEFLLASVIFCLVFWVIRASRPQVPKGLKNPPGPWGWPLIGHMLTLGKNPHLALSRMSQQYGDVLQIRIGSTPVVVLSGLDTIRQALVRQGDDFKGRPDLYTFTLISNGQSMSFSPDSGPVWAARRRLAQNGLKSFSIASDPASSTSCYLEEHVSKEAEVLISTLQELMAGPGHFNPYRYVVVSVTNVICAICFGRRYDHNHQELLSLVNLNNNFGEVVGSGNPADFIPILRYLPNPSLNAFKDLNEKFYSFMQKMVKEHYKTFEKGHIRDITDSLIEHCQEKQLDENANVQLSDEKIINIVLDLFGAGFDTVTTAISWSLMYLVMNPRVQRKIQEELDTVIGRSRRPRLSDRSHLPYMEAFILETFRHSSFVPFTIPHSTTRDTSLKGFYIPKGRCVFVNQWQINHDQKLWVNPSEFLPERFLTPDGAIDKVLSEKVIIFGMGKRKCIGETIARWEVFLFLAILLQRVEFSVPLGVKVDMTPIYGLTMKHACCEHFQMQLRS

MDA-MB-231 = conditions: MDA-MB-231, apoptosis mechanism; ref [66]; cited from earlier work
recombinant human CYP1B1 = target: T2, recombinant human CYP1B1 (Homo sapiens, UniProt Q16678); test: EROD assay, CYP1B1 inhibition; conditions: IC50 CYP1B1 ± SD, recombinant human enzyme, EROD assay, triplicate
T2 sequence (Q16678 1-543): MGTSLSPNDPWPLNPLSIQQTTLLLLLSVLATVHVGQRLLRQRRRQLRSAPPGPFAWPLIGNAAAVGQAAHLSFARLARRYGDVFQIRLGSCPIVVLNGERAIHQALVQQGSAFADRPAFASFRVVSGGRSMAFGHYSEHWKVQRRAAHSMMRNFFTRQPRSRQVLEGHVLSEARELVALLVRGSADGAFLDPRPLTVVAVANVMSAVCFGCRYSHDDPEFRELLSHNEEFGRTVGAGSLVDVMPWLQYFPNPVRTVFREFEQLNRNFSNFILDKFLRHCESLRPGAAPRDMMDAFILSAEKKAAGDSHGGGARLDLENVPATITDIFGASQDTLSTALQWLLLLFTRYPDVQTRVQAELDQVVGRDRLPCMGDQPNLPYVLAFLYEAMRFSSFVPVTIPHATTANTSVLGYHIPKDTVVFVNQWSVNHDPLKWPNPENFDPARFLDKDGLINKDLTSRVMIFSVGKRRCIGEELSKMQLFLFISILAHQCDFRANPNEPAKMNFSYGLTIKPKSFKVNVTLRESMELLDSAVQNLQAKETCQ

CYP1B1 over CYP1A1 = target: T3, CYP1B1 over CYP1A1 (Homo sapiens, UniProt Q16678); test: EROD assay, CYP1B1 inhibition; conditions: human
T3 sequence (Q16678 1-543): T2 sequence (Q16678 1-543)

[1] = system: orthotopic 4T1 breast cancer models; conditions: by inhibiting tumor-cell platelet aggregation, ref [63]; cited from earlier work
[2] = system: myeloid leukemia cell lines; conditions: ref [64],[65]; cited from earlier work
[3] = pH 7.4, selectivity CYP1A1/CYP1B1, ratio of IC50 values

Compound | IC50 (recombinant human CYP1A1) [nM] | anticancer activity (MDA-MB-231) | IC50 (recombinant human CYP1B1) | selectivity ratio (CYP1B1 over CYP1A1; [3]) | breast cancer prevention [1] | selectivity ratio (CYP1B1 over CYP1A1; pH 7.4, selectivity toward CYP1B1 over CYP1A1, text) | cell death [2]
O=c1cc(-c2ccccc2)oc2c1ccc1ccccc12 [ANF, α-naphthoflavone] | 20 ± 4 |  |  |  |  |  | 
CC1CCc2c(N3CCC(O)CC3)c(F)cc3c(=O)c(C(=O)O)cn1c23 (stereo not shown) [nadifloxacin] | 2360 ± 200 | promising anticancer activity | 1460 nM | 1.61 |  |  | 
COc1ccc(Cl)cc1C(=O)NCCc1ccc(S(=O)(=O)NC(=O)NC2CCCCC2)cc1 [glibenclamide] | > 10000 |  | > 10000 nM |  |  |  | 
CCCSc1nc(N[C@@H]2C[C@H]2c2ccc(F)c(F)c2)c2nnn([C@@H]3C[C@H](OCCO)[C@@H](O)[C@H]3O)c2n1 [ticagrelor] | 3450 ± 390 |  | 2810 ± 900 nM | 1.22 | breast cancer prevention activity |  | 
CN(C)CC/C=C1/c2ccccc2Sc2ccc(Cl)cc21 [chlorprothixene] | 490 ± 40 |  | 72 nM and 70 nM | 6.8 |  | 7 | induce cell death by apoptosis
